Measurements taken from ChEMBL document CHEMBL1142822, “Analysis of structure-activity relationships for the 'A-region' of N-(4-t-butylbenzyl)-N'-[4-(methylsulfonylamino)benzyl]thiourea analogues as TRPV1 antagonists” (Bioorg Med Chem Lett, 2005).

Columns and labels:
[1] = molecular target: T1, Transient receptor potential cation channel subfamily V member 1 (Rattus norvegicus, UniProt O35433); test: Agonist activity by [Ca2+] uptake in CHO cells expressing rat TRPV1 at 10-30 uM; WE = Weakly effective; type: functional, cell-based
T1 sequence (O35433 whole entry): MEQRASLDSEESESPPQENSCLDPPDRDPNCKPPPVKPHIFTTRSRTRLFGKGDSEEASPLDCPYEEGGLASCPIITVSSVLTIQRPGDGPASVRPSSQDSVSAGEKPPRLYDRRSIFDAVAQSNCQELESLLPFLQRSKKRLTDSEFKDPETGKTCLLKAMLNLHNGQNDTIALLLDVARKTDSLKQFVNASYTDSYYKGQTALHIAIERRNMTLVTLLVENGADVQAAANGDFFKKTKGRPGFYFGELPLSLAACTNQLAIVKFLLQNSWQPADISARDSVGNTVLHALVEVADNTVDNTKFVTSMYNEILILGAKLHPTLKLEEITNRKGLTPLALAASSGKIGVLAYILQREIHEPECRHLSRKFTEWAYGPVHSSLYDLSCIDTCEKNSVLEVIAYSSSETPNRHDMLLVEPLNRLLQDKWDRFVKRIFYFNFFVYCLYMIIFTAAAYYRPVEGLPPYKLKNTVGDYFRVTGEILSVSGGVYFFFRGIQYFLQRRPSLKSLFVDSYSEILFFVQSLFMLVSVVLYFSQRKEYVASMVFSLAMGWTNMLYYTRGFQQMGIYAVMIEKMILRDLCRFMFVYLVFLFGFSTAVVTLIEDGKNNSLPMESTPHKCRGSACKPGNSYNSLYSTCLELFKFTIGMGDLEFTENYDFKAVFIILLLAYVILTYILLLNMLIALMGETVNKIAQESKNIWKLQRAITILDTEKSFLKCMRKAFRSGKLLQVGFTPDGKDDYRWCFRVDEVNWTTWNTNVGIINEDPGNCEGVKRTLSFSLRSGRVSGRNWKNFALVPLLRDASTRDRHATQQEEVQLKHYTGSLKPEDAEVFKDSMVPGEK

[2] = molecular target: T1, Transient receptor potential cation channel subfamily V member 1; test: In vitro binding affinity for rat TRPV1 expressed in CHO cells using [3H]-RTX; type: cell-based
[3] = molecular target: T1, Transient receptor potential cation channel subfamily V member 1; test: Antagonist activity for rat TRPV1 expressed in CHO cells; Weakly effective; type: functional, cell-based
[4] = molecular target: T1, Transient receptor potential cation channel subfamily V member 1; test: Agonist activity by 300 nM capsaicin induced [Ca2+] uptake in CHO cells expressing rat TRPV1 at 10-30 uM; NE = Not effective; type: functional, cell-based
[5] = molecular target: T1, Transient receptor potential cation channel subfamily V member 1; test: Antagonist activity for rat TRPV1 expressed in CHO cells; type: functional, cell-based
[6] = molecular target: T1, Transient receptor potential cation channel subfamily V member 1; test: Agonist activity by 300 nM capsaicin induced [Ca2+] uptake in CHO cells expressing rat TRPV1 at 10-30 uM; WE = Weakly effective; type: functional, cell-based
[7] = molecular target: T1, Transient receptor potential cation channel subfamily V member 1; test: Agonist activity by [Ca2+] uptake in CHO cells expressing rat TRPV1 at 10-30 uM; NE = Not effective; type: functional, cell-based
[8] = molecular target: T1, Transient receptor potential cation channel subfamily V member 1; test: Antagonist activity for rat TRPV1 expressed in CHO cells; Not effective; type: functional, cell-based
[9] = molecular target: T1, Transient receptor potential cation channel subfamily V member 1; test: Agonist activity by [Ca2+] uptake in CHO cells expressing rat TRPV1 at 10-30 uM; type: functional, cell-based
[10] = molecular target: T1, Transient receptor potential cation channel subfamily V member 1; test: In vitro binding affinity for rat TRPV1 expressed in CHO cells using [3H]RTX; Not effective; type: cell-based

| Structure (SMILES) | Ki [2] | Ki [5] | EC50 ([7]; cho) | Ki [8] | other results |
| --- | --- | --- | --- | --- | --- |
| CC(C)(C)c1ccc(C/N=C(\S)NCc2ccc(NS(N)(=O)=O)cc2)cc1 | 650 nM |  |  |  | EC50 [1]: Partial agonist; Ki [3]: Partial antagonist |
| CSc1cccc(C/N=C(\S)NCc2ccc(C(C)(C)C)cc2)c1 | 580 nM |  |  | Not Active | EC50 ([6]; cho): Partial agonist |
| CC(C)(C)c1ccc(C/N=C(\S)NCc2ccc(CNS(C)(=O)=O)cc2)cc1 |  |  |  | Not Active | EC50 [9]: 1720 nM |
| CC(C)(C)c1ccc(C/N=C(\S)NCc2cccc(NS(C)(=O)=O)c2)cc1 | 6000 nM |  |  | Not Active | EC50 ([7]; read-out: EC50): 4100 nM |
| COc1cc(CNC(=S)NCc2ccc(C(C)(C)C)cc2)ccc1NS(C)(=O)=O |  |  |  |  | EC50 ([6]; cho): Partial agonist |
| CC(C)(C)c1ccc(C/N=C(\S)NCc2ccc(NS(C)(=O)=O)c(Cl)c2)cc1 | 1160 nM | 400 nM |  |  | EC50 [4]: Not Active |
| CC(C)(C)c1ccc(C/N=C(\S)NCc2cccc(S(C)(=O)=O)c2)cc1 | 1000 nM |  |  | Not Active | EC50 ([6]; read-out: EC50): 1010 nM |
| CC(C)(C)c1ccc(C/N=C(\S)NCc2ccc(NS(C)(=O)=O)cc2C(F)(F)F)cc1 | 440 nM | 119 nM | Not Active |  |  |
| CC(C)(C)c1ccc(C/N=C(\S)NCc2cnc(NS(C)(=O)=O)cn2)cc1 |  |  | Not Active | Not Active | Ki [10]: Not Active |
| CC(C)(C)c1ccc(C/N=C(\S)NCc2ccc(NS(C)(=O)=O)nc2)cc1 | 4100 nM | 177 nM | Not Active |  |  |
| C=CS(=O)(=O)Nc1ccc(CN/C(S)=N/Cc2ccc(C(C)(C)C)cc2)cc1 | 231 nM |  |  | Not Active | EC50 [9]: 250 nM |
| Oc1cc2c(cc1O)CN(C(=S)NCCc1ccc(Cl)cc1)CCC2 [CAPSAZEPINE] |  |  | Not Active |  |  |

Now from value to molecule, other results behind:

| Ki [2] | Ki [5] | EC50 ([7]; cho) | Ki [8] | Structure (SMILES) | other results |
| --- | --- | --- | --- | --- | --- |
| 145 nM | 231 nM |  |  | CC(C)(C)c1ccc(C/N=C(\S)NCc2ccc(NS(=O)(=O)CCN=[N+]=[N-])cc2)cc1 | EC50 [4]: Not Active |
| 3900 nM | 699 nM |  |  | CC(C)(C)c1ccc(C/N=C(\S)NCCc2ccc(NS(C)(=O)=O)cc2)cc1 | EC50 ([6]; cho): Partial agonist |
|  | 4100 nM | Not Active |  | CC(C)(C)c1ccc(C/N=C(\S)NCc2ccc(NS(C)(=O)=O)cn2)cc1 |  |
| 750 nM |  |  |  | CC(C)(C)c1ccc(C/N=C(\S)NCc2ccc(NS(C)(=O)=O)c(O)c2)cc1 | EC50 [1]: Partial agonist; Ki [3]: Partial antagonist |
|  |  | Not Active | Not Active | CC(C)(C)c1ccc(C/N=C(\S)NCc2ccc(NS(C)(=O)=O)c(S(C)(=O)=O)c2)cc1 | Ki [10]: Not Active |
| 1300 nM | 610 nM | Not Active |  | CC(C)(C)c1ccc(C/N=C(\S)NCc2ccc(NS(C)(=O)=O)c([N+](=O)[O-])c2)cc1 |  |
| 9560 nM | 6800 nM |  |  | CC(C)(C)c1ccc(C/N=C(\S)Nc2ccc(NS(C)(=O)=O)cc2)cc1 | EC50 [1]: Partial agonist |
| 144 nM | 45.5 nM | Not Active |  | CC(C)(C)c1ccc(C/N=C(\S)NCc2ccc(NS(C)(=O)=O)cc2Cl)cc1 |  |
| 8070 nM | 3600 nM | Not Active |  | CC(C)Oc1cc(C/N=C(\S)NCc2ccc(C(C)(C)C)cc2)ccc1NS(C)(=O)=O |  |
|  |  | Not Active |  | CC(C)(C)c1ccc(CNC(=S)NCc2ccc(NS(C)(=O)=O)cc2)cc1 |  |
| 215 nM | 27.3 nM | Not Active |  | CC(C)(C)c1ccc(C/N=C(\S)NCc2ccc(NS(C)(=O)=O)cc2F)cc1 |  |
| 4640 nM |  | Not Active |  | CC(C)(C)c1ccc(C/N=C(\S)NCc2ccc(NS(=O)(=O)CCN)cc2)cc1 | Ki [3]: Partial antagonist |
|  |  | Not Active |  | CC(C)(C)c1ccc(CNC(=S)NCc2ccc(NS(C)(=O)=O)c(F)c2)cc1 |  |
| 3600 nM |  |  | Not Active | C[S+]([O-])c1cccc(C/N=C(\S)NCc2ccc(C(C)(C)C)cc2)c1 (stereo not drawn) | EC50 ([7]; read-out: EC50): 1890 nM |
